Assay results taken from ChEMBL document CHEMBL1145349, “Discovery of 3-hydroxy-4-carboxyalkylamidino-5-arylamino-isothiazoles as potent MEK1 inhibitors” (Bioorg Med Chem Lett, 2006).

Target: Dual specificity mitogen-activated protein kinase kinase 1 (Homo sapiens, UniProt Q02750)
Assay: Inhibition of MEK1

Chain of Dual specificity mitogen-activated protein kinase kinase 1 (Q02750 whole entry): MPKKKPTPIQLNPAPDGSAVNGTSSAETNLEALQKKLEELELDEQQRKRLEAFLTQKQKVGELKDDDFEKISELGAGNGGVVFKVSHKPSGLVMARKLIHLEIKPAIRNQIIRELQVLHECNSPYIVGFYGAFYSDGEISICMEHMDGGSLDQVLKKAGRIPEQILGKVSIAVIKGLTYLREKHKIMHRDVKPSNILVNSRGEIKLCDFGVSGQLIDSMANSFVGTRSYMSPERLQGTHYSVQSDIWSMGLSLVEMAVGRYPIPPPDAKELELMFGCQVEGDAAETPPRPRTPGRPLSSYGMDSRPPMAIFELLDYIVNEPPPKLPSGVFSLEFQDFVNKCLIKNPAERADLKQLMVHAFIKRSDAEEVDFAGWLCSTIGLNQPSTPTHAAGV

Compound	IC50 [µM]
Cc1ccccc1Nc1snc(O)c1C#N	> 5
COCCCNc1snc(O)c1C#N	> 5
N#Cc1c(O)nsc1NCCc1cccs1	> 5
COc1nsc(Nc2ccccc2)c1C#N	> 5
CC(C)Nc1snc(O)c1C#N	> 5
COC(=O)c1cccc(Nc2s[nH]c(=O)c2C#N)c1	> 5
COc1ccccc1Nc1snc(O)c1C#N	> 5
N#Cc1c(NCC2CCCCC2)s[nH]c1=O	> 5
Cc1ccc(Nc2snc(O)c2C#N)cc1	> 5
CCCCNc1snc(O)c1C#N	> 5
N#Cc1c(O)nsc1Nc1ccccc1[N+](=O)[O-]	> 5
N#Cc1c(O)nsc1NCCc1ccc(O)cc1	> 5
COc1ccc(Nc2snc(O)c2C#N)cc1	> 5

Now from value to compound:

IC50 [µM]	Compound
> 5	CC(C)c1ccc(Sc2snc(O)c2C#N)cc1
> 5	CC(Nc1snc(O)c1C#N)c1ccccc1 (configuration not stated)
> 5	N#Cc1c(O)nsc1Nc1cccnc1
> 5	N#Cc1c(O)nsc1Oc1ccc(Oc2ccccc2)cc1
> 5	N#Cc1c(O)nsc1Nc1ccccc1C(F)(F)F
> 5	N#Cc1c(O)nsc1Nc1cccc([N+](=O)[O-])c1
> 5	N#Cc1ccc(Nc2s[nH]c(=O)c2C#N)cc1
0.41	N#Cc1c(O)nsc1Nc1ccc(Cl)cc1
7	N#Cc1c(O)nsc1Nc1ccccc1
> 5	COc1cccc(Nc2snc(O)c2C#N)c1
> 5	N#Cc1c(O)nsc1N1CCCCC1
> 5	N#Cc1c(O)nsc1NCCCN1CCOCC1
> 2	COc1cc(Nc2snc(O)c2-c2nn[nH]n2)cc(OC)c1
> 5	Cc1cccc(Nc2s[nH]c(=O)c2C#N)c1
> 5	N#Cc1c(O)nsc1NCCc1ccccc1
> 5	Cn1sc(Nc2ccccc2)c(C#N)c1=O
> 5	N#Cc1c(O)nsc1Nc1ccc([N+](=O)[O-])cc1
> 2	Cc1ccc(Nc2snc(O)c2/C(N)=N/O)cc1
> 2	Cc1ccc(Nc2snc(O)c2C(=N)NN2CCCCC2)cc1
